This test has as its target Metabotropic glutamate receptor. Nature of the test: Compound was tested for ability to stimulate metabotropic glutamate receptor (mGluR) mediated phosphoinositide hydrolysis in rat hippocampus. Format: functional, tissue-based.

`N[C@H](C(=O)O)c1cc(O)cc(O)c1` displayed an EC50 of 10.9 µM.
The same measure for `N[C@@H](C(=O)O)c1cc(O)cc(O)c1`: 106 µM.
